Measured values published in article PMC6366418, “Evaluation of a flavonoids library for inhibition of pancreatic α-amylase towards a structure–activity relationship” (Journal of Enzyme Inhibition and Medicinal Chemistry, 2019).
Entries after “also recorded” stand apart in the source; their conditions may differ. Read-outs that look alike come from different tables or passages of the source. Values belong to the compound of their own block, whether it stands above or below them.

Tests used:
[1] = biological target: T1, porcine pancreatic α-amylase (Sus scrofa, UniProt P00690); test: In vitro pancreatic α-amylase inhibition assay (CNPG3 substrate, 405 nm); assay type: biochemical; conditions: for IC50: enzyme 0.2 U/mL, CNPG3 0.5 mM, pH 6.8, 37 °C; for Inhibition of α-amylase activity (in words): up to the highest tested concentration (200 µM);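 on all read-outs here: enzyme rate taken from the absorbance slope between 5 and 30 min of CNPG3 hydrolysis, inhibition derived from these rates, at least three independent experiments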
T1 construct: α-Amylase from porcine pancreas; purchased Sigma-Aldrich Co. LLC (St. Louis, MO); host or cells: porcine pancreas (tissue-derived commercial preparation)
T1 sequence (P00690 16-511): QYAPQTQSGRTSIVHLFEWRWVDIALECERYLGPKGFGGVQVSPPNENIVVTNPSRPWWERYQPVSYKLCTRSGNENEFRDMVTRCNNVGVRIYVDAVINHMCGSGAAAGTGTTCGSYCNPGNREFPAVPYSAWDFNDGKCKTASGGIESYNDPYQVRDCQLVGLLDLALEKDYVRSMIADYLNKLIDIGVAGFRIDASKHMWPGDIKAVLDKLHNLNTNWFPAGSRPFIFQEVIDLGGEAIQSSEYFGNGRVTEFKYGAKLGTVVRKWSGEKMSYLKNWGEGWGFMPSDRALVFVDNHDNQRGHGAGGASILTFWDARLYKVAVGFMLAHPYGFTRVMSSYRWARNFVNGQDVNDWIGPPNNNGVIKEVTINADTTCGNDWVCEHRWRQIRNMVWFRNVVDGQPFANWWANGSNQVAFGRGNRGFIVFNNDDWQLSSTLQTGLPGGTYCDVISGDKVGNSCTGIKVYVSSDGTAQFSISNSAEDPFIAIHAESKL

[2] = biological target: T2, α-amylase from porcine pancreas (Sus scrofa, UniProt P00690); test: Inhibitory kinetics of α-amylase (nonlinear regression, Excel Solver); assay type: biochemical; conditions: for Type of inhibition: CNPG3 0.25, 0.5 and 1 mM, best model by F test and AIC; for Vmax: best model; for V max (Solver fit): rate axis DA/min
T2 construct: α-Amylase from porcine pancreas; purchased Sigma-Aldrich Co. LLC (St. Louis, MO); host or cells: porcine pancreas (tissue-derived commercial preparation)
T2 sequence (P00690 16-511): T1 sequence (P00690 16-511)

[3] = system: α-amylase; set-up: method as in Kim et al.[55] and Yoon and Robyt,[52]; conditions: ref Kim et al.[55] and Yoon and Robyt,[52]; cited from earlier work
[4] = biological target: T1, porcine pancreatic α-amylase; set-up: method as in Tadera et al.,[21]; conditions: highest tested concentration of 0.5 mM; ref Tadera et al.,[21]; cited from earlier work
[5] = 200 µM, mean ± SEM, read-out: Inhibition (%) at the highest tested concentration
[6] = competitive inhibition constant, ± SD (jackknife), read-out: Kic
[7] = supplement, competitive inhibition model
[8] = supplement, competitive inhibition model, read-out: K ic (Solver fit)

inhibition at 200 µM [1, 5]: < 20%
Compound: O=c1cc(-c2ccccc2)oc2ccccc12 [A1, Flavone]

inhibition at 200 µM [1, 5]: < 20%
Compound: O=c1cc(-c2cccc(O)c2)oc2ccccc12 [A2]

inhibition at 200 µM [1, 5]: < 20%
Compound: O=c1cc(-c2ccc(O)cc2)oc2ccccc12 [A3]

inhibition at 200 µM [1, 5]: 46 ± 2%
Compound: O=c1cc(-c2ccc(O)c(O)c2)oc2ccccc12 [A4]

inhibition at 200 µM [1, 5]: 31 ± 3%
Compound: O=c1c(O)c(-c2ccc(O)c(O)c2)oc2ccccc12 [A5]

inhibition at 200 µM [1, 5]: < 20%
Compound: COc1ccc(-c2oc3ccccc3c(=O)c2O)cc1OC [A6]

Compound: C[C@H]1O[C@H](O[C@H]2[C@H](O)[C@@H](O)[C@@H](O[C@H]3[C@H](O)[C@@H](O)C(O)O[C@@H]3CO)O[C@@H]2CO)[C@H](O)[C@@H](O)[C@@H]1N[C@H]1C=C(CO)[C@@H](O)[C@H](O)[C@H]1O (stereo partly drawn) [Acarbose, reference compound]
Type of inhibition [2]: Mixed
Type of inhibition ([2]; listed as acarbose): mixed-type inhibitor; also recorded: mixed-type inhibition
Vmax ([2]; ± SD (jackknife)): 12.0 ± 0.9 µmol/min
V max (Solver fit) ([2]; supplement, mixed inhibition model): 39,76745004
Type of inhibition [3]: mixed type inhibitor

inhibition at 200 µM [1, 5]: < 2%
Compound: O=c1cc(-c2ccccc2)oc2cccc(O)c12 [B1]

inhibition at 200 µM [1, 5]: < 20%
Compound: O=c1cc(-c2cccc(O)c2)oc2cccc(O)c12 [B2]

inhibition at 200 µM [1, 5]: < 20%
Compound: O=c1cc(-c2ccc(O)cc2)oc2cccc(O)c12 [B3]

Compound: O=c1cc(-c2ccc(O)c(O)c2)oc2cccc(O)c12 [B4]
IC50 ([1]; mean ± SEM): 148 ± 5 µM
Type of inhibition [2]: competitive inhibitors; also recorded: competitive inhibition
Vmax ([2]; ± SD (jackknife)): 12.0 ± 0.6 µmol/min
Ki [2, 6]: 132 ± 15 µM
V max (Solver fit) [2, 7]: 40,026555
Ki [2, 8]: 132 µM

Compound: O=c1cc(-c2ccccc2)oc2cc(O)ccc12 [C1]
inhibition at 200 µM ([1]; read-out: Inhibition (%) at the highest tested concentration): < 20%

inhibition at 200 µM [1, 5]: 28 ± 3%
Compound: O=c1cc(-c2cccc(O)c2)oc2cc(O)ccc12 [C2]

Compound: O=c1cc(-c2ccc(O)cc2)oc2cc(O)ccc12 [C3]
inhibition at 200 µM [1, 5]: 36 ± 3%
Inhibition of α-amylase activity (in words) [1]: lack of inhibitory activity

inhibition at 200 µM [1, 5]: 34 ± 3%
Inhibition of α-amylase activity (in words) [1]: low activity
Compound: O=c1c(O)c(-c2cccc(O)c2)oc2cc(O)ccc12 [C4]

IC50 ([1]; mean ± SEM): 59 ± 4 µM
Vmax ([2]; ± SD (jackknife)): 10.5 ± 0.9 µmol/min
Ki [2, 6]: 71 ± 7 µM
K m (Solver fit) [2, 7]: 0,9963 mM
V max (Solver fit) [2, 7]: 35,186
Ki [2, 8]: 71.4 µM
Compound: O=c1c(O)c(-c2ccc(O)cc2)oc2cc(O)ccc12 [C5]
Type of inhibition [2]: competitive inhibitors; also recorded: competitive inhibition

IC50 ([1]; mean ± SEM): 131 ± 1 µM
Compound: O=c1cc(-c2ccc(O)c(O)c2)oc2cc(O)ccc12 [C6]

inhibition at 200 µM [1, 5]: < 20%
Compound: COc1cccc(-c2oc3cc(OC)ccc3c(=O)c2O)c1 [C7]
Inhibition of α-amylase activity (in words) [1]: remained unchanged; also recorded: no inhibitory activity

Compound: COc1ccc(-c2oc3cc(OC)ccc3c(=O)c2O)cc1 [C8]
inhibition at 100 µM ([1]; 100 µM, mean ± SEM, read-out: Inhibition (%) at the highest tested concentration): < 20%
Inhibition of α-amylase activity (in words) [1]: remained unchanged; also recorded: no inhibitory activity

inhibition at 200 µM [1, 5]: 22 ± 3%
Compound: O=c1cc(-c2ccccc2)oc2cc(O)cc(O)c12 [D1, Chrysin]

inhibition at 200 µM [1, 5]: < 20%
Compound: O=c1c(O)c(-c2ccccc2)oc2cc(O)cc(O)c12 [D2, Galangin]

IC50 ([1]; mean ± SEM): ~200 µM
Compound: O=c1cc(-c2cccc(O)c2)oc2cc(O)cc(O)c12 [D4]

IC50 ([1]; mean ± SEM): 118 ± 7 µM
Compound: O=c1c(O)c(-c2ccc(O)cc2)oc2cc(O)cc(O)c12 [D6, Kaempferol]

Decrease of inhibitory activity / increase of IC50 compared with D11 ([1]; fold, relative to D11): two-fold
IC50 ([1]; mean ± SEM): 78 ± 3 µM
Compound: O=c1cc(-c2ccc(O)c(O)c2)oc2cc(O)cc(O)c12 [D7, Luteolin]

IC50 ([1]; mean ± SEM): 107 ± 6 µM
Compound: O=c1c(O)c(-c2cc(O)c(O)c(O)c2)oc2cc(O)cc(O)c12 [D9, Myricetin]

inhibition at 200 µM [1, 5]: 33 ± 3%
Compound: COc1ccc(-c2cc(=O)c3c(O)cc(O)cc3o2)cc1OC [D18]

inhibition at 200 µM [1, 5]: < 20%
Inhibition of α-amylase activity (in words) [1]: no activity was found
Compound: C[C@@H]1O[C@@H](OC[C@H]2O[C@@H](Oc3c(-c4ccc(O)c(O)c4)oc4cc(O)cc(O)c4c3=O)[C@H](O)[C@@H](O)[C@@H]2O)[C@H](O)[C@H](O)[C@H]1O [D19, Rutin]

inhibition at 200 µM [1, 5]: < 20%
Inhibition of α-amylase activity (in words) [1]: not able to inhibit
Compound: O=C1C[C@@H](c2ccc(O)cc2)Oc2cc(O)cc(O)c21 [E1, Naringenin]
Inhibition of porcine pancreatic α-amylase activity (in words) [4]: not able to inhibit

Compound: O=C1C[C@@H](c2ccc(O)c(O)c2)Oc2cc(O)cc(O)c21 [E2, Eriodictyol]
inhibition at 200 µM [1, 5]: < 20%
Inhibition of α-amylase activity (in words) [1]: not able to inhibit

inhibition at 200 µM [1, 5]: < 20%
Inhibition of α-amylase activity (in words) [1]: not able to inhibit
Compound: O=C1c2c(O)cc(O)cc2OC(c2ccc(O)c(O)c2)C1O (stereo not drawn) [E3, Taxifolin]

Compound: Acacetin [D17]
Inhibition (%) at the highest tested concentration ([1]; 200 µM, mean ± SEM): <20%^200 µM*

Inhibition (%) at the highest tested concentration ([1]; 200 µM, mean ± SEM): 23 ± 1 %^200µM*
Compound: Morin [D10]
